Test results from patent publication US20180252703A1, “AN IN VITRO 3D CELL CULTURE MODEL-BASED TUMOR RELAPSE ASSAY” (INSPHERO AG, priority 2015, published 2018).

Experiments:
[1] = test system: HCT-116 3D InSight colorectal cancer microtissues; experiment: Dose response of HCT-116 3D microtissues by size (area) after 5 days of compound exposure; format: cell-based; conditions: Homo sapiens, HCT-116, 120 h; tissue size (area), after 5 days exposure
Protocol: After microtissue formation, spheroids were transferred into GravityTRAP™ plates for further experiments. Medium was refreshed at days 4, 6 and 8 post-transfer to assay plates.
From the stock solutions, two-fold serial dilutions in DMSO were prepared for each compound, leading to 200× concentrated working dilutions.
(§1) Microtissues were treated in GravityTRAP™ plates with the indicated compound dilutions (n=4), leading to 0.5% DMSO in the cell culture medium. As a control, microtissues were exposed to 0.5% DMSO without a compound. Upon medium exchange, compounds were re-added where indicated. The treatment was performed over 10 days, however, for 2 tissues per group, the compound exposure was discontinued after 5 days and they were thereafter incubated in medium without compound (n=2).
IC20 and IC50 values were determined by plotting the tissue size over the compound concentration after incubation over 5 days.
(§2) GravityTRAP™ plates containing treated microtissues were scanned with Cell^3iMager (Dainippon, Japan) with a resolution of 4800 dpi. Microtissue size was assessed with the software provided by the manufacturer.
(§3) Air bubbles interfering with the size analysis were excluded manually, either by adjusting the image section to be analyzed by the software or by cropping the area designated to a microtissue after size measurement. The acquired data was normalized to the non-treated control (S=size of microtissue).
Dose response based on the size (area) of the tumor microtissue were used to define IC20, IC50 and the lowest maximum response concentration [nM].

[2] = test system: HCT-116 3D InSight colorectal cancer microtissues; experiment: Tumor relapse assay: 5-day pulsed versus 10-day continuous treatment of HCT-116 microtissues, read by size and intra-tissue ATP, relapse index ReI; format: cell-based; conditions: for ReI at IC50, times higher than at IC20: ReI at IC50 relative to ReI at IC20; for tumor relapse index (ReI): 5-day pulsed treatment, growth profiles over 10 days; for growth after the 5-day treatment: at the respective IC50 concentration; for tumor re-growth after removing the compound after a 5-day treatment: lower drug concentrations: 6 nM taxol, 50 nM doxorubicin, 125 nM staurosporine, size or intra-tissue ATP content; for phenotype of re-growth after drug removal: phenotypic analysis, taxol at low concentrations (6 nM)
Protocol: as §1, §2, §3
In order to determine the number of viable cells per microtissue, the amount of intracellular ATP as a measure for metabolic activity was determined by using CellTiter-Glo® Luminescent Cell Viability Assay (Promega; Madison, USA). The assay was performed according to the manufacturer's protocol with slight adaptations specific to microtissues. In brief, supernatant was removed and lysis of microtissues initiated by adding 40 μl diluted CellTiter-Glo Reagent (1:2 in PBS). The cell lysis was enhanced by pipetting up and down prior to transfer into an opaque white assay plate. […] The acquired data was normalized to the non-treated control:
To generate the tumor relapse index the growth profiles of the pulsed treatment groups were compared to the growth curves of the vehicle-only treated microtissues and the lowest maximum concentration treated group (FIG. 7). The impact of the pulsed drug treatment was set relative to the control and the maximum response of the respective drug (FIGS. 5 and 6).
To determine a tumor relapse index, the sizes (e.g., diameter, volume or area of an optical cross section) of at least one 3-dimensional cell culture or tissue in the continuous treatment group, the pulsed treatment group and the untreated control group are determined at a given point of time (endpoint measurement).
Then, (i) the difference (e.g., d2) between the size of at least one 3-dimensional cell culture or tissue in the continuous treatment group and at least one 3-dimensional cell culture or tissue in the pulsed treatment group is formed, and
(ii) the difference (e.g., d1) between the size of at least one 3-dimensional cell culture or tissue in the pulsed treatment group and at least one 3-dimensional cell culture or tissue in the untreated control group is formed.
Then, a quotient is formed out of the two differences (e.g., d1/d^2) to deliver a tumor relapse index. Such tumor relapse indices can be determined for different inhibitory concentration of the respective anti-cancer agents.

| IC50 [1] | ReI at IC50, times higher than at IC20 [2] | Compound | IC20 [1] | capacity to re-grow after drug removal ([2]; 50 nM treated group compared with 100 nM treated group) | tumor relapse index (ReI) ([2]; at IC20 concentration) | tumor relapse index (ReI) ([2]; at IC50 concentration) | growth after the 5-day treatment [2] | tumor re-growth after removing the compound after a 5-day treatment [2] | phenotype of re-growth after drug removal [2] | re-growth compared to continuous treated counterparts ([2]; 125 nM and 500 nM, drug removed after 5 days, size and intra-tissue ATP) | tumor removal ([2]; high concentrations, after 5 days) |
| --- | --- | --- | --- | --- | --- | --- | --- | --- | --- | --- | --- |
| 200 nM | 6.6 times | COc1cccc2c1C(=O)c1c(O)c3c(c(O)c1C2=O)C[C@@](O)(C(=O)CO)C[C@@H]3O[C@H]1C[C@H](N)[C@H](O)[C@H](C)O1 [doxorubicin] | 50 nM | stronger capacity to re-grow | 0.32 | 2.1 | the tumor was still able to grow | tumor re-growth was observed | regrew symmetrically |  |  |
|  |  | CN[C@@H]1C[C@H]2O[C@@](C)([C@@H]1OC)n1c3ccccc3c3c4c(c5c6ccccc6n2c5c31)C(=O)NC4 [staurosporine] | 31.2 nM |  |  | 0.56 | growth occurred even in a similar extent as in the non-treated control culture | tumor re-growth was observed | regrew symmetrically | re-grew substantially |  |
| 12.5 nM | 26 times | CC(=O)O[C@H]1C(=O)[C@@]2(C)[C@H]([C@H](OC(=O)c3ccccc3)[C@]3(O)C[C@H](OC(=O)[C@H](O)[C@@H](NC(=O)c4ccccc4)c4ccccc4)C(C)=C1C3(C)C)[C@]1(OC(C)=O)CO[C@@H]1C[C@@H]2O [taxol] | 6.25 nM |  | 0.59 | 15.3 | hardly any growth could be observed | tumor re-growth was observed | regrew side-specific |  | nearly complete tumor removal |
